One assay has as its target T1, full-length WT STING (Homo sapiens, UniProt Q86WV6, H232R).
T1 construct: made in house; host or cells: Trichoplusia ni insect cells, baculovirus generated in Sf21; crude membranes
In words: 3H-cGAMP filtration binding assay (WT STING). To be noted: competition with tritiated cGAMP ligand; T. ni cell membranes overexpressing full-length WT STING. As for the experimental part: The ability of compounds to bind STING is quantified by their ability to compete with tritiated cGAMP ligand for human STING receptor membrane using a radioactive filter-binding assay. The binding assay employs STING receptor obtained from Trichoplusia ni cell membranes (T. ni; Expression Systems, cat #94-002F, www.expressionsystems.com) overexpressing full-length WT STING and tritiated cGAMP ligand.
The basic WT STING filtration assay protocol is as follows:
16 nM of [^3H] c-GAMP ligand was prepared by diluting into assay buffer, and 50 uL of this working stock was manually added to each well of the assay plate. After ligand addition, 2 uL of either titrated test compound, DMSO control (Sigma #276855), or cold cGAMP control was added to the appropriate wells using a BIOMEK FX. The serially titrated compound was prepared on a Hamilton STARPlus CORE in a 96-well plate (Greiner, #651201) using a 1:3 ten-point dose response format. Following compound addition, a 2.2 ug/ml working concentration of STING membrane (SEQ. ID. No. 3) was prepared by diluting concentrated membrane into assay buffer (1×PBS; Invitrogen #SH30028.02) and douncing 7× using a manual tissue homogenizer (Wheaton, #357546). 148 uL of this prepared membrane was then manually added to each well of a 96-well deep-well polypropylene plate (Fisher Scientific, #12-566-121). Compound, ligand, and membrane then incubated for 60 min at RT before the contents of each assay plate were filtered through a 96-well GF/B filter plate (PerkinElmer, #6005250) using a TOMTEC MACH III Cell Harvester equipped with 20 mM HEPES buffer (Fisher Scientific, #BP299500). The filter plates were then dried at 55° C. for 30 min using a pressurized VWR oven before 30 uL of ULTIMA GOLD F scintillate was added to each well. Tritium levels for each reaction well were then measured using a PerkinElmer TopCount plate reader.
After normalization to controls, the percent activity for each compound concentration was calculated by measuring the amount of remaining radioactivity. The plot of percent activity versus the log of compound concentration was fit with a 4-parameter dose response equation to calculate EC50 values.

The test system of assay [1] is IFN-β secretion from THP1 cells. In words: IFN-β secretion in THP1 cell culture (5 h). The format is cell-based, human. As to conditions: THP1 cells, 5 h incubation, compound at 30 μM; 30 uM cGAMP = 100%. The method in brief: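 THP1 cells at 0.8×10^6/mL were incubated with compounds for 5 h at 37 °C, and secreted IFN-β in the supernatant was measured by AlphaLISA. Percent effect was normalised to 30 uM cGAMP (positive) and 0.3% DMSO (negative) controls. EC50 came from a 4-parameter fit.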

A further assay deals with T2, full-length HAQ STING (Homo sapiens, UniProt Q86WV6, G230A/H232R/R293Q/R71H).
T2 construct: made in house; host or cells: Trichoplusia ni (Hi-Five) insect cells, baculovirus generated in Sf21; crude membranes
In words: 3H-cGAMP filtration binding assay (HAQ STING). To be noted: competition with tritiated cGAMP ligand; T. ni cell membranes overexpressing full-length HAQ STING.

For orientation: EC50 means the concentration giving half of the maximal effect. The low end stands for higher potency in that assay, the high end for lower potency in that assay.

T2 sequence (Q86WV6 with tags, fused parts or gaps R71H/G230A/H232R/R293Q): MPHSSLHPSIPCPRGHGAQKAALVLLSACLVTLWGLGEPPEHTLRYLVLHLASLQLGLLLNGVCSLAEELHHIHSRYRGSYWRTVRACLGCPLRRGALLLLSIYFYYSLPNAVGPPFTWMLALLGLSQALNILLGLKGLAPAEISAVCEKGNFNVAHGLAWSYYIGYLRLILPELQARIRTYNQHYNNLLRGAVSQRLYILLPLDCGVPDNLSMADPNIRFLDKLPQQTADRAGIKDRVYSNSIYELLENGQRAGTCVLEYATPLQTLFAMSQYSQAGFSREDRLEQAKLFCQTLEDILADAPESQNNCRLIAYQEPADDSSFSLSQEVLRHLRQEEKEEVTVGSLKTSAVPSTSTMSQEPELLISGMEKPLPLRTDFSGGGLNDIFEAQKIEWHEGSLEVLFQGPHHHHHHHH
T1 sequence (Q86WV6 with tags, fused parts or gaps H232R): as the sequence (Q86WV6 with tags, fused parts or gaps R71H/G230A/H232R/R293Q) above, with H71R, A230G, Q293R counted along it

In the case of `Nc1ncnc2c1ncn2[C@@H]1O[C@@H]2CO[P@@](=O)(S)O[C@@H]3C[C@@H](CO[P@@](=O)(S)O[C@H]2[C@@H]1F)O[C@H]3n1ccc(=O)n2ccnc12` [Example 19, 8-[(2R,5S,7R,8R,10R,12aR,14R,15S,15aR)-14-(6-amino-9H-purin-9-yl)-15-fluoro-2,10-dioxido-2,10-disulfanyloctahydro-12H-5,8-methanofuro[3,2-l][11,3,6,9,11,2,10]pentaoxadiphosphacyclotetradecin-7-yl]imidazo[1,2-a]pyrimidin-5(8H)-one], the EC50 was found to be 902 nM at full-length WT STING and 208 nM at full-length HAQ STING. In addition, the “% Effect at 30 μM relative to 2′3′-cGAMP” value in assay [1] turned out to be 7%.

The values are drawn from patent US11685761B2, “Cyclic di-nucleotide compounds as sting agonists” (Merck Sharp & Dohme Corp., priority 2017, dated 2023).
